# Results published in article PMC9873481 (Nature, 2022).
# T1: hBest2 (Homo sapiens, UniProt Q8NFU1)
# T1 sequence (Q8NFU1 1-509): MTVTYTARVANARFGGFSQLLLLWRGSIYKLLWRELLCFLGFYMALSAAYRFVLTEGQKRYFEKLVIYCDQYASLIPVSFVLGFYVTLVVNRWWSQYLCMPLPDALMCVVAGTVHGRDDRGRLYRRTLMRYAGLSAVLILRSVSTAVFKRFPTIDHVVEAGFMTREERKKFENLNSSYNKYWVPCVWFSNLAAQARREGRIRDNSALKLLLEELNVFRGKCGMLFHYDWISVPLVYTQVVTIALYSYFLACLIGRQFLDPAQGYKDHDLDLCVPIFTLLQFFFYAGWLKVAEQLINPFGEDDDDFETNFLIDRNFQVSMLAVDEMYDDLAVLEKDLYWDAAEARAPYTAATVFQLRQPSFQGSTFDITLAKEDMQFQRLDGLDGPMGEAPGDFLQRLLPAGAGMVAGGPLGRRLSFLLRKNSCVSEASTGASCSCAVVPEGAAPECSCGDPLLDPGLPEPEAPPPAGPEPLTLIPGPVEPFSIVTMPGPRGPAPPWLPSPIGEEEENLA
# Legend:
# hBest2 = target: T1, hBest2; experiment: whole-cell patch clamp, HEK293; assay type: cell-based
# cryo-EM structure = target: the molecule itself; experiment: cryo-EM structure
EC50 (hBest2) [mM],Molecule,stoichiometry N (cryo-EM structure)
46,N[C@@H](CCC(=O)O)C(=O)O [glutamate],
,"bovine bestrophin-2, purified for cryo-EM (GFP-His tag removed) (natural protein) MTVTYTARVAKARFGGFSKLLLLWRGSIYKLLWRELLCFLGLFMALSAAYRFVLTEEQKRYFEKLVLYCDRYASLIPVSFVLGFYVTLVVHRWWNQYLSMPLTDALMCVVVGTVHGHDERGRLYRRTLMRYAGLSGVLILRSVSTAVFKRFPTIDHVVEAGFMTREERKKFENLNSSYNKYWVPCVWFCNLAAQARREGRIRDNGAFKLLLEELNVFRSKCGMLFHYDWISVPLVYTQVVTIAVYSYFLACLIGRQFLDPAQGYKDHDLDLCVPIFTLLQFFFYAGWLKVAEQLINPFGEDDDDFETNFLIDRCFQVSMLAVDEMYDDLAMLEKDLYWDAAEARAPYTAATAFLMQQPSFQGSTFDITLAKEDMQFQRQDGLEAPLNEAHGDFLQRLLPVGTGMGTGGLL",5
